# Legend:
# [1] = test system: Cabbage Looper (Trichoplusia ni) ("CL"); experiment: Bioassay on Cabbage Looper (CL), 128-well diet tray assay, percent mortality; format: in vivo; conditions: for CL rating (percent mortality class): Cabbage Looper, 128-well diet tray assay; for pest or weed control at 50 µg/cm2: Trichoplusia ni, read-out: CL
# Procedure, shortened: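 Larvae held in covered diet trays at 25 °C, 14:10 light-dark, for five to seven days. Percent mortality scored per well and averaged over eight wells.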
# [2] = test system: Yellow Fever Mosquito "YFM" (Aedes aegypti); conditions: for YFM rating (mortality class): Yellow Fever Mosquito larvae, 96-well plates; for YFM: Table ABC (P), rating of mortality, Yellow Fever Mosquito
# [3] = test system: Green Peach Aphid ("GPA") (Myzus persicae); experiment: Bioassay on Green Peach Aphid (GPA), foliar spray on cabbage seedlings, corrected % control; format: in vivo; conditions: for GPA rating (corrected % control class): foliar spray on cabbage seedlings; for GPA: Table ABC (P), rating of corrected % control
# [4] = test system: Beet Armyworm (Spodoptera exigua) ("BAW"); experiment: Bioassay on Beet Armyworm (BAW), 128-well diet tray assay, percent mortality; format: in vivo; conditions: for BAW rating (percent mortality class): Beet Armyworm, 128-well diet tray assay; for pest or weed control at 50 µg/cm2: Spodoptera exigua, read-out: BAW
# Procedure, shortened: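 Larvae in covered diet trays held at 25 °C, 14:10 light-dark, for five to seven days. Percent mortality scored per well and averaged over eight wells per treatment.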
structure (smiles),measurement,setting,value
"CC(C)c1ccccc1NC(=S)NC(=O)NCCc1ccc(-c2ncn(-c3ccc(OC(F)(F)F)cc3)n2)cc1 [F2, N-[2-isopropylphenyl]-N-[2-(4-{1-[4-(trifluoromethoxy)phenyl]-1H-1,2,4-triazol-3-yl}phenyl)ethyl]dicarbonimidothioic diamide]",CL rating (percent mortality class),[1],A (50-100)
same,YFM rating (mortality class),[2],A (80-100)
same,GPA rating (corrected % control class),[3],B (More than 0-Less than 80)
same,BAW rating (percent mortality class),[4],A (50-100)
"CC(C)c1cccc(N2C(=O)CS/C2=N\C(=O)NCCc2ccc(-c3ncn(-c4ccc(OC(F)(F)F)cc4)n3)cc2)c1 [P51, (Z)-1-(3-(3-isopropylphenyl)-4-oxothiazolidin-2-ylidene)-3-(4-(1-(4-(trifluoromethoxy)phenyl)-1H-1,2,4-triazol-3-yl)phenethyl)urea]",pest or weed control at 50 µg/cm2,[1],50 to 100%
same,YFM,[2],A (80-100)
same,GPA,[3],B (More than 0-Less than 80)
same,pest or weed control at 50 µg/cm2,[4],50 to 100%
"CC(Cc1ccc(-c2ncn(-c3ccc(OC(F)(F)F)cc3)n2)cc1)NC(=O)/N=C1\SCC(=O)N1c1ccccc1C(C)C (stereo not shown) [F7, (Z)-1-(3-(2-isopropylphenyl)-4-oxothiazolidin-2-ylidene)-3-(1-(4-(1-(4-(trifluoromethoxy)phenyl)-1H-1,2,4-triazol-3-yl)phenyl)propan-2-yl)urea]",CL rating (percent mortality class),[1],A (50-100)
same,YFM rating (mortality class),[2],A (80-100)
same,GPA rating (corrected % control class),[3],B (More than 0-Less than 80)
same,BAW rating (percent mortality class),[4],A (50-100)
"Cc1ccc(C(C)C)c(N2C(=O)CS/C2=N\C(=O)NCCCCc2ccc(-c3ncn(-c4ccc(C(F)(F)F)cc4)n3)cc2)c1 [P159, (Z)-1-(3-(2-isopropyl-5-methylphenyl)-4-oxothiazolidin-2-ylidene)-3-(4-(4-(1-(4-(trifluoromethyl)phenyl)-1H-1,2,4-triazol-3-yl)phenyl)butyl)urea]",pest or weed control at 50 µg/cm2,[1],50 to 100%
same,YFM,[2],A (80-100)
same,GPA,[3],B (More than 0-Less than 80)
same,pest or weed control at 50 µg/cm2,[4],50 to 100%
"COc1ccc(C(C)C)c(N2C(=O)CS/C2=N\C(=O)NCCc2ccc(-c3ncn(-c4ccc(OC(F)(F)F)cc4)n3)cc2)c1 [F6, (Z)-1-(3-(2-isopropyl-5-methoxyphenyl)-4-oxothiazolidin-2-ylidene)-3-(4-(1-(4-(trifluoromethoxy)phenyl)-1H-1,2,4-triazol-3-yl)phenethyl)urea]",CL rating (percent mortality class),[1],A (50-100)
same,YFM rating (mortality class),[2],A (80-100)
same,GPA rating (corrected % control class),[3],B (More than 0-Less than 80)
same,BAW rating (percent mortality class),[4],A (50-100)
"CCc1cccc(C)c1N1C(=O)CS/C1=N\C(=O)NC(C)Cc1ccc(-c2ncn(-c3ccc(OC(F)(F)F)cc3)n2)cc1 (stereo not shown) [P42, (Z)-1-(3-(2-ethyl-6-methylphenyl)-4-oxothiazolidin-2-ylidene)-3-(1-(4-(1-(4-(trifluoromethoxy)phenyl)-1H-1,2,4-triazol-3-yl)phenyl)propan-2-yl)urea]",pest or weed control at 50 µg/cm2,[1],50 to 100%
same,YFM,[2],A (80-100)
same,pest or weed control at 50 µg/cm2,[4],50 to 100%
"Cc1ccc(C(C)C)c(N2C(=O)CS/C2=N\C(=O)NCCc2ccc(-c3ncn(-c4ccc(OC(F)(F)F)cc4)n3)cc2)c1 [F5, (Z)-1-(3-(2-isopropyl-5-methylphenyl)-4-oxothiazolidin-2-ylidene)-3-(4-(1-(4-(trifluoromethoxy)phenyl)-1H-1,2,4-triazol-3-yl)phenethyl)urea]",CL rating (percent mortality class),[1],A (50-100)
same,YFM rating (mortality class),[2],A (80-100)
same,GPA rating (corrected % control class),[3],A (80-100)
same,BAW rating (percent mortality class),[4],A (50-100)
"Cc1ccc(C(C)C)c(N2C(=O)CS/C2=N\C(=O)NCC(C)c2ccc(-c3ncn(-c4ccc(OC(F)(F)F)cc4)n3)cc2)c1 (stereo not shown) [F10, (Z)-1-(3-(2-isopropyl-5-methylphenyl)-4-oxothiazolidin-2-ylidene)-3-(2-(4-(1-(4-(trifluoromethoxy)phenyl)-1H-1,2,4-triazol-3-yl)phenyl)propyl)urea]",CL rating (percent mortality class),[1],A (50-100)
same,YFM rating (mortality class),[2],A (80-100)
same,GPA rating (corrected % control class),[3],B (More than 0-Less than 80)
same,BAW rating (percent mortality class),[4],A (50-100)
"Cc1ccc(C(C)C)c(-n2c(C)cs/c2=N\C(=O)NCCc2ccc(-c3ncn(-c4ccc(OC(F)(F)F)cc4)n3)cc2)c1 [P65, (Z)-1-(3-(2-isopropyl-5-methylphenyl)-4-methylthiazol-2(3H)-ylidene)-3-(4-(1-(4-(trifluoromethoxy)phenyl)-1H-1,2,4-triazol-3-yl)phenethyl)urea]",pest or weed control at 50 µg/cm2,[1],50 to 100%
same,YFM,[2],A (80-100)
same,pest or weed control at 50 µg/cm2,[4],50 to 100%
"Cc1ccc(N2C(=O)CS/C2=N\C(=O)NCCCCc2ccc(-c3ncn(-c4ccc(OC(F)(F)F)cc4)n3)cc2)c(C(C)C)c1 [P154, (Z)-1-(3-(2-isopropyl-4-methylphenyl)-4-oxothiazolidin-2-ylidene)-3-(4-(4-(1-(4-(trifluoromethoxy)phenyl)-1H-1,2,4-triazol-3-yl)phenyl)butyl)urea]",pest or weed control at 50 µg/cm2,[1],50 to 100%
same,YFM,[2],B (More than 0-Less than 80)
same,pest or weed control at 50 µg/cm2,[4],50 to 100%
"COc1ccc(C(C)C)c(N2C(=O)CS/C2=N\C(=O)NCC(C)c2ccc(-c3ncn(-c4ccc(OC(F)(F)F)cc4)n3)cc2)c1 (stereo not shown) [P679, (Z)-1-(3-(2-isopropyl-5-methoxyphenyl)-4-oxothiazolidin-2-ylidene)-3-(2-(4-(1-(4-(trifluoromethoxy)phenyl)-1H-1,2,4-triazol-3-yl)phenyl)propyl)urea]",pest or weed control at 50 µg/cm2,[1],50 to 100%
same,YFM,[2],A (80-100)
same,pest or weed control at 50 µg/cm2,[4],50 to 100%
"CCc1ccc(C)cc1N1C(=O)CS/C1=N\C(=O)NCCc1ccc(-c2ncn(-c3ccc(OC(F)(F)F)cc3)n2)cc1 [P49, (Z)-1-(3-(2-ethyl-5-methylphenyl)-4-oxothiazolidin-2-ylidene)-3-(4-(1-(4-(trifluoromethoxy)phenyl)-1H-1,2,4-triazol-3-yl)phenethyl)urea]",pest or weed control at 50 µg/cm2,[1],50 to 100%
same,YFM,[2],A (80-100)
same,pest or weed control at 50 µg/cm2,[4],50 to 100%
